Key:
other TEC family members = details: cited from earlier work
[1] = test system: moderate-to-severe chronic spontaneous urticaria (CSU); experiment: Phase 2 CSU study: Patient Global Impression of Change (PGIC); type: in vivo, human; details: for PGIC Mean (SD) / PGIC Median / PGIC category A little better, patients / PGIC category A little worse, patients / PGIC category Moderately better, patients / PGIC category Moderately worse, patients / PGIC category No change, patients / PGIC category Very much better, patients / PGIC category Very much worse, patients: omalizumab-naïve population; for PGIC LS Mean (SE) / PGIC LS Mean Diff vs. placebo (95% CI): omalizumab-naïve, ANCOVA
Excerpt: The study comprises a 12 week, randomized, double-blind, placebo-controlled, multi-center, dose-ranging efficacy and safety phase, followed by a 40 week open label extension (OLE) phase (see FIG. 1).
The study consists of three phases and an optional OLE phase.
The PGIS is a 1-item measure that asks participants to provide a self-assessment of their overall CSU severity for the past week on a 4 point scale. Response choices are: “None”, “Mild”, “Moderate” and “Severe”. The PGIC is a 1-item measure that asks the participant to provide a self-assessment of overall change in their CSU since the participant started taking the study medication on a 7-point scale. The response options range from “Very Much Better” to “Very Much Worse.” Patients were to complete questionnaires for the 2 items during their site visit.

total serum IgE or IgG = experiment: Phase 2 CSU study: total serum immunoglobulins (IgE, IgG, IgM); details: for Total IgE (IU/mL) Median Percent Change from Baseline / Total IgG (g/L) Median Percent Change from Baseline: Baseline to Week 12
Protocol: Changes in disease-relevant biomarkers were assessed over the course of the 12-Week double-blind phase (see FIG. 40). Biomarkers included sMRGPRX2, IgE anti-TPO, IgG anti-FCεRI, IL-31, IgM, IgE, IgG, IgG anti-IgE, and white blood cell levels.

## CC(C)(C=C(C#N)C(=O)N1CCC[C@@H](n2nc(-c3ccc(Oc4ccccc4)cc3F)c3c(N)ncnc32)C1)N1CCN(C2COC2)CC1 [rilzabrutinib, (R)-2-[3-[4-amino-3-(2-fluoro-4-phenoxy-phenyl)pyrazolo[3,4-d]pyrimidin-1-yl]piperidine-1-carbonyl]-4-methyl-4-[4-(oxetan-3-yl)piperazin-1-yl]pent-2-enenitrile]
Other TEC family members
  binding over time: decayed rapidly over time
[1]; 400 mg TID
  quality of life as measured by PGIC: improvement
[1]; Week 2, 400 mg BID
  PGIC Mean (SD): 1.61
  PGIC Median: 1.00
  PGIC category A little better, patients: 6 (19.4)
  PGIC category A little worse, patients: 1 (3.2)
  PGIC category Moderately better, patients: 5 (16.1)
  PGIC category Moderately worse, patients: 1 (3.2)
  PGIC category No change, patients: 6 (19.4)
  PGIC category Very much better, patients: 11 (35.5)
  PGIC category Very much worse, patients: 1 (3.2)
  PGIC LS Mean (SE): 1.53
  PGIC LS Mean Diff vs. placebo (95% CI): −0.81
[1]; Week 2, 400 mg QPM
  PGIC Mean (SD): 2.33
  PGIC Median: 3.00
  PGIC category A little better, patients: 7 (21.2)
  PGIC category A little worse, patients: 1 (3.0)
  PGIC category Moderately better, patients: 5 (15.2)
  PGIC category Moderately worse, patients: 0
  PGIC category No change, patients: 16 (48.5)
  PGIC category Very much better, patients: 3 (9.1)
  PGIC category Very much worse, patients: 1 (3.0)
  PGIC LS Mean (SE): 2.12
  PGIC LS Mean Diff vs. placebo (95% CI): −0.22
[1]; Week 2, 400 mg TID
  PGIC Mean (SD): 1.42
  PGIC Median: 1.00
  PGIC category A little better, patients: 7 (21.2)
  PGIC category A little worse, patients: 0
  PGIC category Moderately better, patients: 7 (21.2)
  PGIC category Moderately worse, patients: 1 (3.0)
  PGIC category No change, patients: 5 (15.2)
  PGIC category Very much better, patients: 12 (36.4)
  PGIC category Very much worse, patients: 1 (3.0)
  PGIC LS Mean (SE): 1.43
  PGIC LS Mean Diff vs. placebo (95% CI): −0.91
[1]; Week 4, 400 mg BID
  PGIC Mean (SD): 1.67
  PGIC Median: 1.00
  PGIC category A little better, patients: 6 (18.2)
  PGIC category A little worse, patients: 2 (6.1)
  PGIC category Moderately better, patients: 8 (24.2)
  PGIC category Moderately worse, patients: 0
  PGIC category No change, patients: 7 (21.2)
  PGIC category Very much better, patients: 9 (27.3)
  PGIC category Very much worse, patients: 1 (3.0)
  PGIC LS Mean (SE): 1.59
  PGIC LS Mean Diff vs. placebo (95% CI): −0.49
[1]; Week 4, 400 mg QPM
  PGIC Mean (SD): 2.24
  PGIC Median: 2.00
  PGIC category A little better, patients: 10 (29.4)
  PGIC category A little worse, patients: 5 (14.7)
  PGIC category Moderately better, patients: 4 (11.8)
  PGIC category Moderately worse, patients: 1 (2.9)
  PGIC category No change, patients: 7 (20.6)
  PGIC category Very much better, patients: 6 (17.6)
  PGIC category Very much worse, patients: 1 (2.9)
  PGIC LS Mean (SE): 2.06
  PGIC LS Mean Diff vs. placebo (95% CI): −0.02
[1]; Week 4, 400 mg TID
  PGIC Mean (SD): 1.14
  PGIC Median: 1.00
  PGIC category A little better, patients: 6 (20.7)
  PGIC category A little worse, patients: 1 (3.4)
  PGIC category Moderately better, patients: 5 (17.2)
  PGIC category Moderately worse, patients: 0
  PGIC category No change, patients: 4 (13.8)
  PGIC category Very much better, patients: 13 (44.8)
  PGIC category Very much worse, patients: 0
  PGIC LS Mean (SE): 1.18
  PGIC LS Mean Diff vs. placebo (95% CI): −0.90
[1]; Week 8, 400 mg BID
  PGIC Mean (SD): 1.42
  PGIC Median: 1.00
  PGIC category A little better, patients: 3 (9.1)
  PGIC category A little worse, patients: 1 (3.0)
  PGIC category Moderately better, patients: 8 (24.2)
  PGIC category Moderately worse, patients: 1 (3.0)
  PGIC category No change, patients: 6 (18.2)
  PGIC category Very much better, patients: 13 (39.4)
  PGIC category Very much worse, patients: 1 (3.0)
  PGIC LS Mean (SE): 1.43
  PGIC LS Mean Diff vs. placebo (95% CI): −0.41
[1]; Week 8, 400 mg QPM
  PGIC Mean (SD): 2.21
  PGIC Median: 2.00
  PGIC category A little better, patients: 9 (27.3)
  PGIC category A little worse, patients: 2 (6.1)
  PGIC category Moderately better, patients: 6 (18.2)
  PGIC category Moderately worse, patients: 1 (3.0)
  PGIC category No change, patients: 10 (30.3)
  PGIC category Very much better, patients: 4 (12.1)
  PGIC category Very much worse, patients: 1 (3.0)
  PGIC LS Mean (SE): 2.10
  PGIC LS Mean Diff vs. placebo (95% CI): 0.27
[1]; Week 8, 400 mg TID
  PGIC Mean (SD): 0.90
  PGIC Median: 1.00
  PGIC category A little better, patients: 2 (6.7)
  PGIC category A little worse, patients: 1 (3.3)
  PGIC category Moderately better, patients: 10 (33.3)
  PGIC category Moderately worse, patients: 0
  PGIC category No change, patients: 3 (10.0)
  PGIC category Very much better, patients: 14 (46.7)
  PGIC category Very much worse, patients: 0
  PGIC LS Mean (SE): 0.98
  PGIC LS Mean Diff vs. placebo (95% CI): −0.86
[1]; Week 12, 400 mg BID
  PGIC Mean (SD): 1.03
  PGIC Median: 0.50
  PGIC category A little better, patients: 1 (3.3)
  PGIC category A little worse, patients: 1 (3.3)
  PGIC category Moderately better, patients: 8 (26.7)
  PGIC category Moderately worse, patients: 1 (3.3)
  PGIC category No change, patients: 4 (13.3)
  PGIC category Very much better, patients: 15 (50.0)
  PGIC category Very much worse, patients: 0
  PGIC LS Mean (SE): 1.17
  PGIC LS Mean Diff vs. placebo (95% CI): −0.46
[1]; Week 12, 400 mg QPM
  PGIC Mean (SD): 2.12
  PGIC Median: 2.00
  PGIC category A little better, patients: 7 (20.6)
  PGIC category A little worse, patients: 2 (5.9)
  PGIC category Moderately better, patients: 6 (17.6)
  PGIC category Moderately worse, patients: 1 (2.9)
  PGIC category No change, patients: 11 (32.4)
  PGIC category Very much better, patients: 6 (17.6)
  PGIC category Very much worse, patients: 1 (2.9)
  PGIC LS Mean (SE): 2.00
  PGIC LS Mean Diff vs. placebo (95% CI): 0.38
[1]; Week 12, 400 mg TID
  PGIC Mean (SD): 0.97
  PGIC Median: 0.00
  PGIC category A little better, patients: 4 (12.9)
  PGIC category A little worse, patients: 2 (6.5)
  PGIC category Moderately better, patients: 5 (16.1)
  PGIC category Moderately worse, patients: 0
  PGIC category No change, patients: 3 (9.7)
  PGIC category Very much better, patients: 17 (54.8)
  PGIC category Very much worse, patients: 0
  PGIC LS Mean (SE): 0.98
  PGIC LS Mean Diff vs. placebo (95% CI): −0.64
Total serum IgE or IgG; 12-week double-blind phase
  change in total serum IgE or IgG levels: not associated with a change
Total serum IgE or IgG; 400 mg BID
  Total IgE (IU/mL) Median Percent Change from Baseline: 3.9%
  Total IgG (g/L) Median Percent Change from Baseline: 0.96%
Total serum IgE or IgG; 400 mg QPM
  Total IgE (IU/mL) Median Percent Change from Baseline: 3.4%
  Total IgG (g/L) Median Percent Change from Baseline: −1.99%
Total serum IgE or IgG; 400 mg TID
  Total IgE (IU/mL) Median Percent Change from Baseline: 4.1%
  Total IgG (g/L) Median Percent Change from Baseline: 0.24%
